Assay results published in PubChem BioAssay AID2060896 (Molecular Pharmacology Branch, DTP, NCI, 2025).
One block for each compound: values may come before it.

Tested on: 941728-121-R-J1-PDC complex spheroid viability
Assay: Anticancer human tumor 941728-121-R-J1-PDC patient-derived lung adenocarcinoma cell line growth inhibition [RAS]
Settings: for viability, T/C: stronger effect = lower value
Outline: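 Tumour cells grown as complex spheroids with HUVEC endothelial cells and mesenchymal stem cells, treated with RAS pathway inhibitor combinations. Each agent spans half-log steps from near clinical Cmax, or 10 microM where Cmax is unknown.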

[1] = curve of first compound, second compound 0.0316 µM
[2] = curve of first compound, second compound 0.1 µM
[3] = curve of first compound, second compound 0.316 µM
[4] = curve of first compound, second compound 1 µM
[5] = curve of first compound, second compound 3.16 µM
[6] = curve of first compound, second compound 10 µM
[7] = second compound 0.0316 µM, first compound 0.0316 µM
[8] = second compound 0.0316 µM, first compound 0.1 µM
[9] = second compound 0.0316 µM, first compound 0.316 µM
[10] = second compound 0.0316 µM, first compound 1 µM
[11] = second compound 0.0316 µM, first compound 3.16 µM
[12] = second compound 0.0316 µM, first compound 10 µM
[13] = second compound 0.1 µM, first compound 0.0316 µM
[14] = second compound 0.1 µM, first compound 0.1 µM
[15] = second compound 0.1 µM, first compound 0.316 µM
[16] = second compound 0.1 µM, first compound 1 µM
[17] = second compound 0.1 µM, first compound 3.16 µM
[18] = second compound 0.1 µM, first compound 10 µM
[19] = second compound 0.316 µM, first compound 0.0316 µM
[20] = second compound 0.316 µM, first compound 0.1 µM
[21] = second compound 0.316 µM, first compound 0.316 µM
[22] = second compound 0.316 µM, first compound 1 µM
[23] = second compound 0.316 µM, first compound 3.16 µM
[24] = second compound 0.316 µM, first compound 10 µM
[25] = second compound 1 µM, first compound 0.0316 µM
[26] = second compound 1 µM, first compound 0.1 µM
[27] = second compound 1 µM, first compound 0.316 µM
[28] = second compound 1 µM, first compound 1 µM
[29] = second compound 1 µM, first compound 3.16 µM
[30] = second compound 1 µM, first compound 10 µM
[31] = second compound 3.16 µM, first compound 0.0316 µM
[32] = second compound 3.16 µM, first compound 0.1 µM
[33] = second compound 3.16 µM, first compound 0.316 µM
[34] = second compound 3.16 µM, first compound 1 µM
[35] = second compound 3.16 µM, first compound 3.16 µM
[36] = second compound 3.16 µM, first compound 10 µM
[37] = second compound 10 µM, first compound 0.0316 µM
[38] = second compound 10 µM, first compound 0.1 µM
[39] = second compound 10 µM, first compound 0.316 µM
[40] = second compound 10 µM, first compound 1 µM
[41] = second compound 10 µM, first compound 3.16 µM
[42] = second compound 10 µM, first compound 10 µM
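Also: spheroids exposed to compounds for 7 days before readout.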
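For viability, T/C in this document: 100% = DMSO vehicle control viability.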

Structure (SMILES): O=C(c1ccc(F)c(F)c1Nc1ccc(I)cc1F)N1CC(O)([C@@H]2CCCCN2)C1
viability, T/C (compound 0.00316 µM): 80.3% [middle of 4 runs] | viability, T/C (compound 0.01 µM): 69% [middle of 4 runs] | viability, T/C (compound 0.1 µM): 42.2% [middle of 4 runs] | viability, T/C (compound 0.316 µM): 32.5% [middle of 4 runs] | viability, T/C (compound 1 µM): 27.8% [middle of 4 runs]

Structure (SMILES): Cc1nc(N2CCC3(CC2)COC(C)C3N)c(CO)nc1Sc1ccnc(N)c1Cl (centres undefined)
viability, T/C (compound 0.0316 µM): 65.7% [middle of 4 runs] | viability, T/C (compound 0.1 µM): 55.1% [middle of 4 runs] | viability, T/C (compound 0.316 µM): 43.4% [middle of 4 runs] | viability, T/C (compound 1 µM): 41.8% [middle of 4 runs] | viability, T/C (compound 3.16 µM): 42.2% [middle of 4 runs] | viability, T/C (compound 10 µM): 40.1% [middle of 4 runs]

Structure (SMILES): CC(Nc1ccc2c(c1)OCCn1cc(N3C(=O)OCC3C(F)F)nc1-2)C(N)=O (centres undefined)
viability, T/C (compound 0.0316 µM): 81% [middle of 4 runs] | viability, T/C (compound 0.1 µM): 53.6% [middle of 4 runs] | viability, T/C (compound 0.316 µM): 40.8% [middle of 4 runs] | viability, T/C (compound 1 µM): 42.5% [middle of 4 runs] | viability, T/C (compound 3.16 µM): 37.6% [middle of 4 runs] | viability, T/C (compound 10 µM): 34.7% [middle of 4 runs] | IC50 (curve of compound): 144 nM [middle of 4 runs]

Now from value to compound, other results behind:

IC50 [1]: 75.7 nM | IC50 [2]: 49.4 nM | IC50 [3]: < 31.6 nM | IC50 [4]: < 31.6 nM | IC50 [5]: < 31.6 nM | IC50 [6]: < 31.6 nM
Structure (SMILES): CC(Nc1ccc2c(c1)OCCn1cc(N3C(=O)OCC3C(F)F)nc1-2)C(N)=O (centres undefined) + C#Cc1c(F)ccc2cc(O)cc(-c3ncc4c(N5CC6CCC(C5)N6)nc(OCC56CCCN5CC(F)C6)nc4c3F)c12
viability, T/C [7]: 64.5% | viability, T/C [8]: 44.4% | viability, T/C [9]: 37% | viability, T/C [10]: 35.9% | viability, T/C [11]: 29% | viability, T/C [12]: 29.6% | viability, T/C [13]: 56.9% | viability, T/C [14]: 39.5% | viability, T/C [15]: 33.2% | viability, T/C [16]: 28.1% | viability, T/C [17]: 31.3% | viability, T/C [18]: 32.5% | viability, T/C [19]: 40.3% | viability, T/C [20]: 38.1% | viability, T/C [21]: 33.4% | viability, T/C [22]: 29.9% | viability, T/C [23]: 30.4% | viability, T/C [24]: 23.1% | viability, T/C [25]: 33.8% | viability, T/C [26]: 29.8% | viability, T/C [27]: 27.6% | viability, T/C [28]: 27.8% | viability, T/C [29]: 27.4% | viability, T/C [30]: 25.9% | viability, T/C [31]: 28.3% | viability, T/C [32]: 28.4% | viability, T/C [33]: 28% | viability, T/C [34]: 23.4% | viability, T/C [35]: 26.2% | viability, T/C [36]: 23.2% | viability, T/C [37]: 22.8% | viability, T/C [38]: 21.2% | viability, T/C [39]: 19.5% | viability, T/C [40]: 18.5% | viability, T/C [41]: 17.4% | viability, T/C [42]: 15.4%

IC50 [1]: 7000 nM | IC50 [2]: 7100 nM | IC50 [3]: 2680 nM | IC50 [4]: < 31.6 nM | IC50 [5]: < 31.6 nM | IC50 [6]: < 31.6 nM
Structure (SMILES): C[C@@H](NC(=O)c1ncnc(N)c1Cl)c1ncc(C(=O)Nc2cc(C(F)(F)F)c(Cl)cn2)s1 + C#Cc1c(F)ccc2cc(O)cc(-c3ncc4c(N5CC6CCC(C5)N6)nc(OCC56CCCN5CC(F)C6)nc4c3F)c12
viability, T/C [7]: 107% | viability, T/C [8]: 102% | viability, T/C [9]: 108% | viability, T/C [10]: 94.4% | viability, T/C [11]: 72.5% | viability, T/C [12]: 40% | viability, T/C [13]: 102% | viability, T/C [14]: 109% | viability, T/C [15]: 103% | viability, T/C [16]: 102% | viability, T/C [17]: 76.3% | viability, T/C [18]: 38.9% | viability, T/C [19]: 69.7% | viability, T/C [20]: 79.6% | viability, T/C [21]: 69.6% | viability, T/C [22]: 60.2% | viability, T/C [23]: 49.2% | viability, T/C [24]: 37.1% | viability, T/C [25]: 46.2% | viability, T/C [26]: 48.5% | viability, T/C [27]: 45.3% | viability, T/C [28]: 39.4% | viability, T/C [29]: 38.4% | viability, T/C [30]: 29.4% | viability, T/C [31]: 30% | viability, T/C [32]: 32.5% | viability, T/C [33]: 28.2% | viability, T/C [34]: 26.5% | viability, T/C [35]: 30.2% | viability, T/C [36]: 28.1% | viability, T/C [37]: 24.4% | viability, T/C [38]: 25.2% | viability, T/C [39]: 25.3% | viability, T/C [40]: 26.2% | viability, T/C [41]: 25% | viability, T/C [42]: 21.7%

IC50 (curve of first compound, second compound 0.000949 µM): < 31.6 nM | IC50 (curve of first compound, second compound 0.003 µM): < 31.6 nM | IC50 (curve of first compound, second compound 0.00949 µM): < 31.6 nM | IC50 (curve of first compound, second compound 0.03 µM): < 31.6 nM | IC50 (curve of first compound, second compound 0.0949 µM): < 31.6 nM | IC50 (curve of first compound, second compound 0.3 µM): < 31.6 nM
Structure (SMILES): CC1(O)CCCC1n1c(=O)c(C(F)F)cc2cnc(NC3CCN(S(C)(=O)=O)CC3)nc21 (centres undefined) + CCn1c(-c2cc(N3CCN(C)CC3)cnc2C(C)OC)c2c3cc(ccc31)-c1csc(n1)CC(NC(=O)C1CC1C)C(=O)N1CCCC(N1)C(=O)OCC(C)(C)C2
viability, T/C (second compound 0.000949 µM, first compound 0.0316 µM): 28.6% | viability, T/C (second compound 0.000949 µM, first compound 0.1 µM): 30.3% | viability, T/C (second compound 0.000949 µM, first compound 0.316 µM): 24.8% | viability, T/C (second compound 0.000949 µM, first compound 1 µM): 38.3% | viability, T/C (second compound 0.000949 µM, first compound 3.16 µM): 34.9% | viability, T/C (second compound 0.000949 µM, first compound 10 µM): 31.3% | viability, T/C (second compound 0.003 µM, first compound 0.0316 µM): 24.4% | viability, T/C (second compound 0.003 µM, first compound 0.1 µM): 20.1% | viability, T/C (second compound 0.003 µM, first compound 0.316 µM): 18.4% | viability, T/C (second compound 0.003 µM, first compound 1 µM): 22.3% | viability, T/C (second compound 0.003 µM, first compound 3.16 µM): 23.3% | viability, T/C (second compound 0.003 µM, first compound 10 µM): 26.9% | viability, T/C (second compound 0.00949 µM, first compound 0.0316 µM): 16.5% | viability, T/C (second compound 0.00949 µM, first compound 0.1 µM): 13.6% | viability, T/C (second compound 0.00949 µM, first compound 0.316 µM): 15.9% | viability, T/C (second compound 0.00949 µM, first compound 1 µM): 17.5% | viability, T/C (second compound 0.00949 µM, first compound 3.16 µM): 15.6% | viability, T/C (second compound 0.00949 µM, first compound 10 µM): 28.4% | viability, T/C (second compound 0.03 µM, first compound 0.0316 µM): 13.4% | viability, T/C (second compound 0.03 µM, first compound 0.1 µM): 12.6% | viability, T/C (second compound 0.03 µM, first compound 0.316 µM): 13.5% | viability, T/C (second compound 0.03 µM, first compound 1 µM): 14.4% | viability, T/C (second compound 0.03 µM, first compound 3.16 µM): 9.96% | viability, T/C (second compound 0.03 µM, first compound 10 µM): 27.3% | viability, T/C (second compound 0.0949 µM, first compound 0.0316 µM): 11.1% | viability, T/C (second compound 0.0949 µM, first compound 0.1 µM): 14.5% | viability, T/C (second compound 0.0949 µM, first compound 0.316 µM): 14.3% | viability, T/C (second compound 0.0949 µM, first compound 1 µM): 14.8% | viability, T/C (second compound 0.0949 µM, first compound 3.16 µM): 9.56% | viability, T/C (second compound 0.0949 µM, first compound 10 µM): 27.7% | viability, T/C (second compound 0.3 µM, first compound 0.0316 µM): 10.4% | viability, T/C (second compound 0.3 µM, first compound 0.1 µM): 11.6% | viability, T/C (second compound 0.3 µM, first compound 0.316 µM): 13.3% | viability, T/C (second compound 0.3 µM, first compound 1 µM): 15.2% | viability, T/C (second compound 0.3 µM, first compound 3.16 µM): 12.2% | viability, T/C (second compound 0.3 µM, first compound 10 µM): 23.8%
